Read-outs that look alike come from different tables or passages of the source. Each block holds one compound with its values, some of them ahead of it.
Assays:
[1] = Shake-flask octanol/water partition coefficient study of DES drugs (FIG. 20); type: physicochemical
Description: “Solubility” is based on a standard measure used in medicinal chemistry. The octanol-water partition coefficient (P) is the ratio of distribution of a compound in a mixture of 1-octanol and H2O. Log P is the base 10 logarithm of the partition coefficient.
In the measurement of the partition coefficient (octanol/water), preliminary studies were conducted to determine the optimum drug concentration for each test, and the appropriate time for establishing the partition equilibrium. All experiments were carried out by two different analysts and on multiple drug lots.

[2] = Transfer coefficient (P divided by S) of DES drugs (FIG. 21); type: physicochemical; conditions: P divided by equilibrium aqueous solubility S (μg/ml)
[3] = Pig model, tissue and blood concentrations of zotarolimus eluted from ZoMaxx stents (FIG. 25); type: in vivo
[4] = Shake-flask aqueous solubility study of DES drugs (FIG. 20); conditions: for Aqueous solubility, rank order: amorphous DES drugs, dexamethasone crystalline
[5] = representative summary; cited from earlier work
[6] = Six-hour elution from PC1036-coated coupons (FIG. 10-13); type: physicochemical; conditions: for Amount released from coupon: after 6 hours, pH 7.4 PBS, 37° C.; for Amount remaining on coupon: six-hour elution
Description: Prior to any experimentation, coated stainless steel coupons were prepared. These coupons were 316 L electropolished stainless steel discs (10 mm diameter). This size was chosen because the surface area of one side of the coupon is similar to the surface area of a 15-mm open cell BiodivYsio stent. […]. The cleaning was a two-step process in which the coupons are sonicated for 3 minutes in dichloromethylene and 3 minutes in ethanol. The coupons were allowed to dry at room temperature. One side of the coupon was coated using a filtered 20-mg/mL solution of phosphoryl choline polymer PC1036 (product of Biocompatibles Ltd., Farnham, Surrey, UK) in ethanol. Twenty μL PC solution was placed onto the coupon using a gas tight glass syringe, ensuring that the entire surface was coated but not spilling over the sides of the coupon. The coupons were initially air dried and then cured at 70° C. for 16 hours. They were then sent for gamma irradiation at <25KGy. The resulting PC coating thickness was close to that of the stent and thick enough to accommodate the desired loaded drug dose, as graphically represented in FIG. 9A-B. FIG. 9A-B is a top and side view of a coated stainless steel coupon 30, having a PC-coating 20 on a electropolished stainless steel disc.
In these experiments, beneficial agents were loaded onto coupons and elution profiles examined. In general, the procedure is as follows. Twelve PC-coated coupons were loaded with each drug. The solutions of the drugs were usually 5.0 mg/mL in 100% ethanol and were filtered with a 0.45 μm filter prior to use.
The coupons were weighed before loading with the drug solution. To load 100 μg of drug, 20 μL of solution was placed (e.g., pipetted) on the center of the PC coated side of the coupon. The coupon was placed in a vial for 30 minutes with the lid closed to allow the drug to penetrate the coating. The lid was removed and the coupon was allowed to dry for an additional 90 minutes. To ensure that the coupon was completely dry, the coupon was weighed, and after 15 minutes the coupon was weighed a third time. When two weightings of the coupon were the same, the coupon was considered dry. The loaded, dry coupons were stored in a refrigerator protected from light.
For each drug, six coupons were used to evaluate the total amount of drug loaded by the above procedure. The coupons were immersed in 5 mL of 50% ethanol, 50% water solution and sonicated for 1 hour. The concentration of the drug in the extraction solution was analyzed by HPLC.
At the end of the elution experiments discussed below, the coupons were removed from the elution media and immersed in 5 mL of 50% ethanol, 50% water solution and sonicated for 1 hour. The concentration of the drug in these vials indicated the amount of the drug remaining in the coupons at the end of the elution experiments.
Six coated coupons of each drug were used for the elution experiments. The coupons were individually placed, coating side up, in small metal cups to hold the coupon and to allow movement to a new vial at each time point. The coupons were usually placed in a vial containing 10 mL of pH 7.4 phosphate buffered saline. The vials were stored in an orbital shaker, with horizontal shaking of 100 rpm, at 37° C. for at least 30 minutes before insertion of a coupon to allow the solution to equilibrate at the desired temperature. After the desired time had lapsed, the coupon holder was lifted and allowed to drain. It was then placed into a pre-warmed vial corresponding to the next time point. This procedure continued until the predetermined time had elapsed. At that point, the coupons went through a drug extraction step as outlined earlier. The amount of drug in the elution samples was determined by HPLC.

[7] = Pharmacokinetics after single intravenous dose in cynomolgus monkey; type: in vivo; conditions: for t1/2: terminal elimination, single 2.5 mg/kg intravenous dose, blood; for Terminal elimination half-life compared to rapamycin: cynomolgus monkey, intravenous
[8] = test system: human mixed lymphocyte reaction (MLR); assay: Human mixed lymphocyte reaction (MLR) assay; type: cell-based; conditions: read-out: Human MLR IC50 ± S.E.M.
[9] = Stability of dexamethasone on PC-coated stents in ETO sterilization (FIG. 16); type: physicochemical

Compound: CO[C@H]1C[C@@H]2CC[C@@H](C)[C@@](O)(O2)C(=O)C(=O)N2CCCC[C@H]2C(=O)O[C@H]([C@H](C)C[C@@H]2CC[C@H](n3cnnn3)[C@H](OC)C2)CC(=O)[C@H](C)/C=C(\C)[C@@H](O)[C@@H](OC)C(=O)[C@H](C)C[C@H](C)/C=C/C=C/C=C/1C [Zotarolimus]
Lipophilicity rank among DES drugs tested [1]: the most lipophilic of all DES drugs tested
Transfer coefficient, rank order [2]: zotarolimus>>paclitaxel>>rapamycin>dexamethasone
Concentration in arterial tissue adjacent to stent placement ([3]; all periods out to 28 days): substantial concentrations
Concentration in distal, unstented and subjacent myocardium and unstented and distal coronary arteries ([3]; throughout 28 days): therapeutically significant concentrations
Aqueous solubility, rank order [4]: increasing order: paclitaxel, zotarolimus, rapamycin, and dexamethasone (crystalline)
Solubility in water compared with amorphous rapamycin ([4]; shake-flask): much less soluble in water than amorphous rapamycin
LogP Values [5]: >4.5

Amount released from coupon ([6]; in absence of zotarolimus): 50%
Amount released from coupon ([6]; in presence of zotarolimus): less than 10%
Compound: CCCCN(CCCC)C(=O)CN1C[C@H](c2ccc3c(c2)OCO3)[C@@H](C(=O)O)[C@@H]1c1ccc(OC)cc1.Cl [ABT-627, atrasentan]
LogP Values [5]: 3.4

Compound: CC(=O)O[C@H]1C(=O)[C@@]2(C)[C@H]([C@H](OC(=O)c3ccccc3)[C@]3(O)C[C@H](OC(=O)[C@H](O)[C@@H](NC(=O)c4ccccc4)c4ccccc4)C(C)=C1C3(C)C)[C@]1(OC(C)=O)CO[C@@H]1C[C@@H]2O [Paclitaxel]
Transfer coefficient, rank order [2]: zotarolimus>>paclitaxel>>rapamycin>dexamethasone
Aqueous solubility, rank order [4]: increasing order: paclitaxel, zotarolimus, rapamycin, and dexamethasone (crystalline)

Compound: CCCCC/C=C\C/C=C\CCCCCCCC(=O)O [Linoleic acid]
LogP Values [5]: >6

Amount released from coupon ([6]; in absence of zotarolimus): ~90%
Amount released from coupon ([6]; in presence of zotarolimus): about 52%
Compound: OCCN(CCO)c1nc(N2CCCCC2)c2nc(N(CCO)CCO)nc(N3CCCCC3)c2n1 [Dipyridamole]

Compound: CC(C)(Sc1cc(C(C)(C)C)c(O)c(C(C)(C)C)c1)Sc1cc(C(C)(C)C)c(O)c(C(C)(C)C)c1 [Probucol]
LogP Values [5]: >8

Compound: C#C[C@]1(O)CC[C@H]2[C@@H]3CCC4=Cc5oncc5C[C@]4(C)[C@H]3CC[C@@]21C [Danazol]
LogP Values [5]: 4.5

Compound: CC/C=C\C/C=C\C/C=C\CCCCCCCC(=O)O [Linolenic acid]
LogP Values [5]: >6

t1/2 [7]: 13.3 h
IC50 [8]: 0.43 ± 0.2 nM
Compound: COC1CC2CCC(C)C(O)(O2)C(=O)C(=O)N2CCCCC2C(=O)OC(C(C)CC2CCC(n3ccc(=O)cc3)C(OC)C2)CC(=O)C(C)C=C(C)C(O)C(OC)C(=O)C(C)CC(C)C=CC=CC=C1C (stereo not drawn) [Example 4-pyridone, 40-epi-N-[4′-pyridone]-rapamycin]

Compound: CO[C@H]1C[C@@H]2CC[C@@H](C)[C@@](O)(O2)C(=O)C(=O)N2CCCC[C@H]2C(=O)O[C@H]([C@H](C)C[C@@H]2CC[C@@H](O)[C@H](OC)C2)CC(=O)[C@H](C)/C=C(\C)[C@@H](O)[C@@H](OC)C(=O)[C@H](C)C[C@H](C)/C=C/C=C/C=C/1C [Rapamycin]
Lipophilicity rank among DES drugs tested [1]: the most lipophilic compounds in the group tested
Transfer coefficient, rank order [2]: zotarolimus>>paclitaxel>>rapamycin>dexamethasone
Aqueous solubility, rank order [4]: increasing order: paclitaxel, zotarolimus, rapamycin, and dexamethasone (crystalline)
LogP Values [5]: >4.5
IC50 ([8]; Homo sapiens, Lymphocyte): 0.91 ± 0.36 nM

Compound: C=CC[C@@H]1/C=C(\C)C[C@H](C)C[C@H](OC)[C@H]2O[C@@](O)(C(=O)C(=O)N3CCCC[C@H]3C(=O)O[C@H](/C(C)=C/[C@@H]3CC[C@@H](O)[C@H](OC)C3)[C@H](C)[C@@H](O)CC1=O)[C@H](C)C[C@@H]2OC [Tacrolimus]
LogP Values [5]: >4.5

Compound: CC[C@]1(O)C[C@H]2CN(CCc3c([nH]c4ccccc34)[C@@](C(=O)OC)(c3cc4c(cc3OC)N(C=O)[C@H]3[C@@](O)(C(=O)OC)[C@H](OC(C)=O)[C@]5(CC)C=CCN6CC[C@]43[C@@H]65)C2)C1 [Vincristine]
LogP Values [5]: 2.6

Compound: CC[C@]1(O)C[C@@H]2CN(CCc3c([nH]c4ccccc34)[C@@](C(=O)OC)(c3cc4c(cc3OC)N(C)[C@H]3[C@@](O)(C(N)=O)[C@H](O)[C@]5(CC)C=CCN6CC[C@]43[C@@H]65)C2)C1 [Vindesine]
LogP Values [5]: 1.3

Terminal elimination half-life compared to rapamycin [7]: substantially shorter
Compound: COC1CC2CCC(C)C(O)(O2)C(=O)C(=O)N2CCCCC2C(=O)OC(C(C)CC2CCC(n3cnnn3)C(OC)C2)CC(=O)C(C)C=C(C)C(O)C(OC)C(=O)C(C)CC(C)C=CC=CC=C1C (single isomer, unassigned; more polar) [Example 2, 42-Epi-(tetrazolyl)-rapamycin (more polar isomer)]

Compound: CCCCCCCC/C=C\CCCCCCCC(=O)O [Oleic acid]
LogP Values [5]: >6

Compound: CO[C@H]1C[C@@H]2CC[C@@H](C)[C@@](O)(O2)C(=O)C(=O)N2CCCC[C@H]2C(=O)O[C@H]([C@H](C)C[C@@H]2CC[C@H](n3ncnn3)[C@H](OC)C2)CC(=O)[C@H](C)/C=C(\C)[C@@H](O)[C@@H](OC)C(=O)[C@H](C)C[C@H](C)/C=C/C=C/C=C/1C (single isomer, unassigned; less polar) [Example 1, 42-Epi-(tetrazolyl)-rapamycin (less polar isomer)]
Terminal elimination half-life compared to rapamycin [7]: substantially shorter

Compound: CCCCCCCCCCCCCCCCCC(=O)O [Stearic acid]
LogP Values [5]: >6

t1/2 [7]: 2.8 h
IC50 [8]: 12.4 ± 5.3 nM
Compound: 40-epi-N-[2′-pyridone]-rapamycin [Example 2-pyridone]

Compound: O=C(Oc1ccccc1)c1ccccc1O [Phenyl salicylate]
LogP Values [5]: 4.1

Compound: CC(=O)[C@H]1CC[C@H]2[C@@H]3CCC4=CC(=O)CC[C@]4(C)[C@H]3CC[C@]12C [Progesterone]
LogP Values [5]: 3.2

Compound: CC(C)OC(=O)C(C)(C)Oc1ccc(C(=O)c2ccc(Cl)cc2)cc1 [Fenofibrate]
LogP Values [5]: >4.5

Compound: CC[C@]1(O)C[C@@H]2CN(CCc3c([nH]c4ccccc34)[C@@](C(=O)OC)(c3cc4c(cc3OC)N(C)[C@H]3[C@@](O)(C(=O)OC)[C@H](OC(C)=O)[C@]5(CC)C=CCN6CC[C@]43[C@@H]65)C2)C1 [Vinblastine]
LogP Values [5]: 3.6

Compound: COc1ccccc1OCCNCC(O)COc1cccc2[nH]c3ccccc3c12 (stereo not drawn) [Carvedilol]
LogP Values [5]: 1.97

Degradation in ETO sterilization environment ([9]; dexamethasone-only coating): degraded
Degradation in ETO sterilization environment ([9]; loaded in combination with zotarolimus, 1-to-1 ratio): did not degrade
Amount remaining on coupon ([6]; coupon containing zotarolimus): ~70%
Amount remaining on coupon ([6]; no zotarolimus present): 25%
Compound: C[C@@H]1C[C@H]2[C@@H]3CCC4=CC(=O)C=C[C@]4(C)[C@@]3(F)[C@@H](O)C[C@]2(C)[C@@]1(O)C(=O)CO [Dexamethasone]
Aqueous solubility, rank order [4]: increasing order: paclitaxel, zotarolimus, rapamycin, and dexamethasone (crystalline)
LogP Values [5]: ~1.9-2.2
